According to patent publication US11077097B2, “Use of aromatic ring drug in inhibiting key transcription factor of malignant melanoma” (SHANGHAI INSTITUTE OF ORGANIC CHEMISTRY, CHINESE ACADEMY OF …, priority 2017, dated 2021):

Columns and labels:
MITF dimer = target: T1, MITF dimer (Homo sapiens, UniProt O75030); assay: AlphaScreen high-throughput screening model MIDAS (MITF Dependent Alpha-Screen), MITF dimer formation; assay type: binding; conditions: read-out: IC50 of inhibiting formation of MITF dimer
T1 sequence (O75030 1-526): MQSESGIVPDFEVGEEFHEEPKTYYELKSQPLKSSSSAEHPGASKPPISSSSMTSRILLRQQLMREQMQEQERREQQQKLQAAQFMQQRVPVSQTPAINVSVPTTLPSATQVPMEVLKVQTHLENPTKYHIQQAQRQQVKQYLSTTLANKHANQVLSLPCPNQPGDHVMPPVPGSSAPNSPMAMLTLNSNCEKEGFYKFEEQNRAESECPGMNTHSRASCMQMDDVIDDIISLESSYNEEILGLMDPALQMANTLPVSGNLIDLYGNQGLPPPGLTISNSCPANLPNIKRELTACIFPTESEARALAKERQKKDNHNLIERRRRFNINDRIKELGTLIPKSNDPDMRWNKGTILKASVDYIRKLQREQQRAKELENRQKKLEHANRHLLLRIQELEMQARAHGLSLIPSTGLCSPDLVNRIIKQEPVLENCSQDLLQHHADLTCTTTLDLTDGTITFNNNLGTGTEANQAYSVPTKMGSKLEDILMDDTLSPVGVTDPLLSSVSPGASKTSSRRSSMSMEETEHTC
Description: In the AlphaScreen high-throughput screening model MIDAS (MITF Dependent Alpha-Screen), MITF was labeled with a Biotin tag recognized by Alpha donor beads and a His tag recognized by Alpha receptor beads, respectively. When MITF formed a dimer, Alpha Donor beads and Alpha Receptor beads were pulled close to each other and detected by 680 nm excitation light and 520-620 nm emission light, thereby monitoring the formation of MITF dimer.

LysRS-p38 interaction = LysRS-p38 interaction (Homo sapiens, UniProt Q13155+Q15046); assay: AlphaScreen control test, LysRS-p38 interaction; assay type: binding
[1] = tested on: MITF landmark downstream genes-TYR and TRPM1; assay: Fluorescent quantitative RT-PCR of MITF downstream genes in B16F10 cells; assay type: cell-based; conditions: Mus musculus, B16-F10, B16F10 cell line, read-out: IC50 of inhibiting mRNA levels of TYR and TRPM1
Experimental: TT-012 was incubated with melanoma cell B16F10 cell line, mRNA was extracted and reverse transcripted, and the transcription of MITF landmark downstream genes-TYR (tyrosinase) and TRPM1 (transient receptor potential cation channel M1) were detected by fluorescent quantitative PCR.

B16F10 cells = assay: MTT cell activity, MITF-dependent melanoma cell line B16F10; assay type: cell-based; conditions: Mus musculus, B16-F10, MITF-dependent and highly expressed, read-out: IC50 of inhibiting growth of B16F10 cells
Experimental: (§1) The active TT012 was incubated with MITF-dependent and highly expressed melanoma cell line B16F10, the melanoma cell line A375 with low expression of MITF, and control cell line Hela, respectively, and cell activity was detected by MTT experiment.

A375 cells = assay: MTT cell activity, melanoma cell line A375 with low expression of MITF; assay type: cell-based
Experimental: as §1

Hela cells = assay: MTT cell activity, control cell line Hela; assay type: cell-based
Experimental: as §1

melanin formation = assay: Forskolin-induced melanin production; assay type: cell-based
Description: MITF regulated the transcription and expression of melanin synthase TYR, TYRP1, and is the main regulatory factor of melanin formation. Foskolin, a small molecule compound, could regulate pathway, promote the expression of MITF, and promote melanin production by activating MSH-cAMP-CREB.

LysRS-p38 interaction, sequence (Q15046 whole entry): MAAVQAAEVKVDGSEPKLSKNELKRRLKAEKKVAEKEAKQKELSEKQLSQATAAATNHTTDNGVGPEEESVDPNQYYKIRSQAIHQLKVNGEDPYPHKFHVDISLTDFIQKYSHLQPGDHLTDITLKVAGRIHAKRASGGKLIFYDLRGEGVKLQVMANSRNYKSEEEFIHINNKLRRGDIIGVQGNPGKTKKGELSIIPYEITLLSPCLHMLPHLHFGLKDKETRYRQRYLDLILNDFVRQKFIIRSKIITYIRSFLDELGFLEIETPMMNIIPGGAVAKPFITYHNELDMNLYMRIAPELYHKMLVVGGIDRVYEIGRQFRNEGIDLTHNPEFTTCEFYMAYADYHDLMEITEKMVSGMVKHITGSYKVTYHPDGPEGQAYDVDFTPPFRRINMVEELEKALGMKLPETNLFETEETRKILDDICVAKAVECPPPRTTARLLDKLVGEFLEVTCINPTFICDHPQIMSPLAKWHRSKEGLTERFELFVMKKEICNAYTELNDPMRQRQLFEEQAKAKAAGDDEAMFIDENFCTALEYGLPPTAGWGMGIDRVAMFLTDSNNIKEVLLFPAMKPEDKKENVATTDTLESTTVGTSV
LysRS-p38 interaction, sequence (Q13155 whole entry): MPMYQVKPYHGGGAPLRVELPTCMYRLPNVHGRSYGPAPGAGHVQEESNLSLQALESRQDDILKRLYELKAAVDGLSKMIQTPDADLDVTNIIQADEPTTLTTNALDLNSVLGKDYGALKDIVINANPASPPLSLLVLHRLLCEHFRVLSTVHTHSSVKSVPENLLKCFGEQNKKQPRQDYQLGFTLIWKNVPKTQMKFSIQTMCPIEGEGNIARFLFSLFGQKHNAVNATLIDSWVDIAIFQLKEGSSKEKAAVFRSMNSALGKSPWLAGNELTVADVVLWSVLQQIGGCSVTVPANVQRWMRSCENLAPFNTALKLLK

O=C(/C=C/c1ccco1)Nc1cccc(NC(=O)/C=C/c2ccco2)n1 [TT-012]
IC50 (MITF dimer): 10 nM
effect on AlphaScreen signal of LysRS-p38 interaction (LysRS-p38 interaction): not affect
IC50 [1]: 2000 nM
IC50 (B16F10 cells): 300 nM
killing effect on A375 cells (A375 cells): no killing effects
killing effect on control cells HELA (Hela cells): no killing effects
inhibition of melanin formation (melanin formation): effectively inhibit
